Where two headings read alike, the source gives them in different places.
Legend:
[1] = biological target: JAK1 (Homo sapiens (Human), UniProt P23458); experiment: Biochemical kinase assay (33P-ATP filter-binding), JAK1; details: read-out: IC50 JAK1
From the text: (§1) Biochemical Kinase Assay Protocol (JAK)
(§2) Reaction Procedure: • 1. […] Detected kinase activity by filter-binding method.

[2] = biological target: JAK2 (Homo sapiens (Human), UniProt O60674); experiment: Biochemical kinase assay (33P-ATP filter-binding), JAK2; details: read-out: IC50 JAK2
JAK2, sequence (O60674 whole entry, species assumed): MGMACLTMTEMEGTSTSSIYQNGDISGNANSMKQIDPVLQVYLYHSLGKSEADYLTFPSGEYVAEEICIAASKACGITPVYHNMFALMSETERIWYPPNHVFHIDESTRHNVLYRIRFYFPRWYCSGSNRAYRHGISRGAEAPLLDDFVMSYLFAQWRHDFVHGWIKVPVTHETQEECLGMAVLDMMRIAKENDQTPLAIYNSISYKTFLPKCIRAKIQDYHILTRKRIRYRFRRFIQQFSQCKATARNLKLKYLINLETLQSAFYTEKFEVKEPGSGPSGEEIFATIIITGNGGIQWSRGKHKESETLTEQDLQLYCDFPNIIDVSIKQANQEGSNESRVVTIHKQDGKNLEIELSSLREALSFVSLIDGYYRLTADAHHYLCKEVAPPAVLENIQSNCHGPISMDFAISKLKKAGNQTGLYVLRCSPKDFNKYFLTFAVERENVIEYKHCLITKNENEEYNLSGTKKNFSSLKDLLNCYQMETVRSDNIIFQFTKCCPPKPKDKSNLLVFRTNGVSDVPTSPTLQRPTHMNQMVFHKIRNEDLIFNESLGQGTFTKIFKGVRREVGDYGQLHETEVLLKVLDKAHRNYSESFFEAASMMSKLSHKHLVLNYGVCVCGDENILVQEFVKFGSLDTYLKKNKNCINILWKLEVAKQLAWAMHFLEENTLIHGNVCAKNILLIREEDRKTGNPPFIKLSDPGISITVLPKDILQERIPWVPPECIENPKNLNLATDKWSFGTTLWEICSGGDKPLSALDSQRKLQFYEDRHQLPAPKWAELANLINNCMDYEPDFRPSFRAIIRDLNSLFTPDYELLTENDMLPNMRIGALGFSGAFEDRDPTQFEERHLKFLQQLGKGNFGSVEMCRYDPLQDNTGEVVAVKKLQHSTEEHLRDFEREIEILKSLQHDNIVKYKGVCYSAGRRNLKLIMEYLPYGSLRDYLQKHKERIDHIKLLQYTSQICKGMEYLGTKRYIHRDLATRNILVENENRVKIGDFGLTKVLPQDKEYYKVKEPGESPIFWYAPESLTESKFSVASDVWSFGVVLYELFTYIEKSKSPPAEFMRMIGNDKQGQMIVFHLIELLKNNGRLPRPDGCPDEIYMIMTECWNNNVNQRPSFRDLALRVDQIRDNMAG
From the text: as §1, §2

[3] = biological target: PDE4B (Homo sapiens (Human), UniProt Q07343); experiment: PDE4B inhibition; format: biochemical
PDE4B, sequence (Q07343 whole entry, species assumed): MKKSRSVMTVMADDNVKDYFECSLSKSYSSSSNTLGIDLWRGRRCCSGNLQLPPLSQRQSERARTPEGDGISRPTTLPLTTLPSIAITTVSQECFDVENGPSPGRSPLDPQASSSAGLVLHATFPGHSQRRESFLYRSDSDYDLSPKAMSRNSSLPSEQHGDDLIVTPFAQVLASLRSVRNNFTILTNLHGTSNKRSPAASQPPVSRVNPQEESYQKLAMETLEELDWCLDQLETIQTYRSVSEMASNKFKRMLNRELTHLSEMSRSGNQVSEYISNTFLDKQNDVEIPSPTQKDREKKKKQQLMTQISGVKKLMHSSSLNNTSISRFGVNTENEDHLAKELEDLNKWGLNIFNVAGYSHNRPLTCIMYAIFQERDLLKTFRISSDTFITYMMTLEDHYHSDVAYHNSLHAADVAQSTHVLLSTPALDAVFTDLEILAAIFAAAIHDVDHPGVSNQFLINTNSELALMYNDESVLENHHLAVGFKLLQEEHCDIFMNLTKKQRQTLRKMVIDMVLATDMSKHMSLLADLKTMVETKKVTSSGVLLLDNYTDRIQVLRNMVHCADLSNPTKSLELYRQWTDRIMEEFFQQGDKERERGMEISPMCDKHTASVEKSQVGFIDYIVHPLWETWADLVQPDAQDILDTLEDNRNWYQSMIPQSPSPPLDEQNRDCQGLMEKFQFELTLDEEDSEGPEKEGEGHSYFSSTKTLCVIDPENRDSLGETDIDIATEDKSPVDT

[4] = test system: IL-4/pSTAT6; experiment: Cytokine function assay IL-4/pSTAT6 in PBMC; format: cell-based
Description: (§3) Cytokine Function Assay Protocols for IL-4/pSTAT6 and GM-CSF/pSTAT5
IL-4/pSTAT6: • PBMC from a healthy donor was plated onto a 96 w plate. Compound was added and incubated for 1 hour (at 37° C.). After 1 hour, cells were stimulated with IL-4 for 15 minutes. Cells were fixed and stained with anti-pSTAT6 antibody. After staining, cells were read on a Beckman-Coulter CytoFLEX.

[5] = Dog LM (liver microsome) assay; format: in vitro ADME; details: predicted clearance as percent of liver blood flow
Description: Dog LM (Liver Microsome) Assay
The metabolic degradation of the test compound is assayed at 37° C. with pooled liver microsomes from dogs (Beagle). The final incubation volume of 100 μl per time point contains TRIS buffer pH 7.6 at RT (0.1 M), magnesium chloride (5 mM), microsomal protein (1 mg/ml) and the test compound at a final concentration of 1 μM. Following a short preincubation period at 37° C., the reactions were initiated by addition of beta-nicotinamide adenine dinucleotide phosphate, reduced form (NADPH, 1 mM) and terminated by transferring an aliquot into solvent after different time points. Additionally, the NADPH-independent degradation was monitored in incubations without NADPH, terminated at the last time point. The [%] remaining test compound after NADPH independent incubation is reflected by the parameter c (control) (metabolic stability). The quenched incubations are pelleted by centrifugation (10000 g, 5 min). An aliquot of the supernatant is assayed by LC-MS/MS for the amount of parent compound. The half-life (t½ INVITRO) is determined by the slope of the semilogarithmic plot of the concentration-time profile. The intrinsic clearance (CL_[…]) is calculated by considering the amount of protein in the incubation: CL_[…] [μl/min/mg protein]=(Ln 2/(half-life [min]*protein content [mg/ml]))*1000. For better across species comparison the predicted clearance is expressed as percent of the liver blood flow [% QH] in the individual species. In general, high stability (corresponding to low % QH) of the compounds across species is desired.

[6] = test system: GM-CSF/pSTAT5; experiment: Cytokine function assay GM-CSF/pSTAT5 in lysed whole blood cells; format: cell-based; details: Table 3b, comparator compounds; read-out: IC50 GM-CSF
Description: as §3
GM-CSF/pSTAT5: • Whole blood from a healthy donor was lysed to remove red blood cells. Cells were plated onto a 96 well plate. Compound was added and incubated for 1 hour (at 37° C.). After 1 hour, cells were stimulated with GM-CSF for 15 minutes. Cells were fixed and stained with anti-pSTAT5 antibody. After staining, cells were read on a Beckman-Coulter CytoFLEX.

[7] = PBMC, read-out: IC50 IL-4, Table 3a
[8] = Table 3a, 1 μM, 1 mg/ml microsomal protein
[9] = Table 3b, comparator compounds, read-out: IC50 IL-4

JAK1, sequence (P23458 whole entry, species assumed): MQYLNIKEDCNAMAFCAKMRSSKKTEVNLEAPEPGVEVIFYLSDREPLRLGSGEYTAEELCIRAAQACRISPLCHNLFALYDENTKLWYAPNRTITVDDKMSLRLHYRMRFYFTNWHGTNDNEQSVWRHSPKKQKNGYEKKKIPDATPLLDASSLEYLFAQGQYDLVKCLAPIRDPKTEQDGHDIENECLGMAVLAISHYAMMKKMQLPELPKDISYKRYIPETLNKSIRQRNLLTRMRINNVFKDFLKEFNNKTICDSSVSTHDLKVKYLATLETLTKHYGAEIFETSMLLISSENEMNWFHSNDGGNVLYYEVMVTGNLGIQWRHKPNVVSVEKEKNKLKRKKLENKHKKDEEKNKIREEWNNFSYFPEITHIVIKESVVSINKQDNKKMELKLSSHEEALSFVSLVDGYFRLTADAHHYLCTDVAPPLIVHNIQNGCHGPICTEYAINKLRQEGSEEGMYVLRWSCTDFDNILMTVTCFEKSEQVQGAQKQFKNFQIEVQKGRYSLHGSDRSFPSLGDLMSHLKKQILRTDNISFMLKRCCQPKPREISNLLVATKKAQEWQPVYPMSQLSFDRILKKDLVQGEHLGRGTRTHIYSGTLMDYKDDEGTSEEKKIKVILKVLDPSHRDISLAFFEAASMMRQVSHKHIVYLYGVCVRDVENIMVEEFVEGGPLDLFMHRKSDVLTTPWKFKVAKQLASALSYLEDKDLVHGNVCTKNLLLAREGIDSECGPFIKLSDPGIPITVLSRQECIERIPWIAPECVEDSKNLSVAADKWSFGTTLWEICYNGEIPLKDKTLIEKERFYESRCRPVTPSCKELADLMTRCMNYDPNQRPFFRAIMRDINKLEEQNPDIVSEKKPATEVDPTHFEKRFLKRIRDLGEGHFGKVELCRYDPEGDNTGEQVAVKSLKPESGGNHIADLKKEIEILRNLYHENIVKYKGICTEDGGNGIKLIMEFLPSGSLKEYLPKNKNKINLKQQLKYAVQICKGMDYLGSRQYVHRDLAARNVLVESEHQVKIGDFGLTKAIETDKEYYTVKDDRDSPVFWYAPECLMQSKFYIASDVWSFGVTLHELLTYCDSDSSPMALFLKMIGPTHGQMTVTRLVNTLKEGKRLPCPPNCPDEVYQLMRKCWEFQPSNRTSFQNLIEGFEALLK

## Cc1cnc(Nc2ccc3c(c2)COB3O)nc1N[C@@H]1CCC[C@H]1C#N (relative stereo) [Example 001, (trans)-2-((2-((1-hydroxy-1,3-dihydrobenzo[c][1,2]oxaborol-5-yl)amino)-5-methylpyrimidin-4-yl)amino)cyclopentane-1-carbonitrile]
[1]; Table 3a
  IC50: 1.1 nM
[2]; Table 3a
  IC50: 24.7 nM
[3]; Table 3a
  IC50: 362 nM
[4]; [7]
  IC50: 173 nM
[5]; [8]
  Dog LM QH: 39.7%

## N#C[C@@H]1CCC[C@H]1Nc1nc(Nc2ccc3c(c2)COB3O)ncc1Cl (relative stereo) [Example 005, (trans)-2-[[5-chloro-2-[(1-hydroxy-3H-2,1-benzoxaborol-5-yl)amino]pyrimidin-4-yl]amino]cyclopentane-1-carbonitrile]
[1]; Table 3a
  IC50: 0.5 nM
[2]; Table 3a
  IC50: 9 nM
[3]; Table 3a
  IC50: 44.5 nM
[5]; [8]
  Dog LM QH: <19.9%

## Cc1cnc(Nc2cc3c(c(C(F)(F)F)c2)B(O)OC3)nc1N[C@@H]1CCC[C@H]1C#N (relative stereo) [Example 006, (trans)2-[[2-[[1-hydroxy-7-(trifluoromethyl)-3H-2,1-benzoxaborol-5-yl]amino]-5-methyl-pyrimidin-4-yl]amino]cyclopentanecarbonitrile]
[1]; Table 3a
  IC50: 1 nM
[2]; Table 3a
  IC50: 36.6 nM
[4]; [7]
  IC50: 202 nM
[5]; [8]
  Dog LM QH: <19.9%

## Cc1cnc(Nc2ccc3c(c2)C=CB(O)O3)nc1N[C@@H]1COCC[C@H]1C#N (relative stereo) [Example 035, (trans)-3-[[2-[(2-hydroxy-1,2-benzoxaborinin-6-yl)amino]-5-methyl-pyrimidin-4-yl]amino]tetrahydropyran-4-carbonitrile]
[1]; Table 3a
  IC50: 0.7 nM
[2]; Table 3a
  IC50: 8.8 nM
[3]; Table 3a
  IC50: 320 nM
[5]; [8]
  Dog LM QH: 43.7%

## Cc1cnc(Nc2cc3c(c(C(F)(F)F)c2)OB(O)C=C3)nc1N[C@@H]1COCC[C@H]1C#N (relative stereo) [Example 037, (trans)-3-[[2-[[2-hydroxy-8-(trifluoromethyl)-1,2-benzoxaborinin-6-yl]amino]-5-methyl-pyrimidin-4-yl]amino]tetrahydropyran-4-carbonitrile]
[1]; Table 3a
  IC50: 3.1 nM
[2]; Table 3a
  IC50: 18.5 nM
[4]; [7]
  IC50: 919 nM
[5]; [8]
  Dog LM QH: 19.9%

## N#C[C@@H]1CCOC[C@H]1Nc1nc(Nc2cc(Cl)c3c(c2)COB3O)ncc1C(F)(F)F (relative stereo) [Example 049, (trans)-3-((2-((7-chloro-1-hydroxy-1,3-dihydrobenzo[c][1,2]oxaborol-5-yl)amino)-5-(trifluoromethyl)pyrimidin-4-yl)amino)tetrahydro-2H-pyran-4-carbonitrile]
[1]; Table 3a
  IC50: 8.2 nM
[2]; Table 3a
  IC50: 13.3 nM
[3]; Table 3a
  IC50: 362 nM
[4]; [7]
  IC50: 173 nM
[5]; [8]
  Dog LM QH: 39.7%

## Cc1cnc(Nc2cc(Cl)c3c(c2)COB3O)nc1N[C@@H]1CCC[C@H]1C#N (single isomer, unassigned) [Example 003b, (trans)-2-((2-((7-chloro-1-hydroxy-1,3-dihydrobenzo[c][1,2]oxaborol-5-yl)amino)-5-methylpyrimidin-4-yl)amino)cyclopentane-1-carbonitrile]
[1]; Table 3a
  IC50: 5 nM
[2]; Table 3a
  IC50: 83.1 nM
[4]; read-out: IC50 IL-4, Table 3a
  IC50: 74.8 nM
[5]; [8]
  Dog LM QH: <19.9%

## Cc1cnc(Nc2cc(F)c3c(c2)C=CB(O)O3)nc1N[C@@H]1COCC[C@H]1C#N (single isomer, unassigned) [Example 036a, (trans)-3-((2-((8-fluoro-2-hydroxy-2H-benzo[e][1,2]oxaborinin-6-yl)amino)-5-methylpyrimidin-4-yl)amino)tetrahydro-2H-pyran-4-carbonitrile]
[1]; Table 3a
  IC50: 0.3 nM
[2]; Table 3a
  IC50: 4.8 nM
[4]; [7]
  IC50: 158 nM
[5]; [8]
  Dog LM QH: 33.1%

## Cc1cnc(Nc2ccc3c(c2)C(C(C)C)=CB(O)O3)nc1N[C@H]1COCC[C@@H]1C#N (single isomer, unassigned) [Example 039a, (trans)-3-((2-((2-hydroxy-4-isopropyl-2H-benzo[e][1,2]oxaborinin-6-yl)amino)-5-methylpyrimidin-4-yl)amino)tetrahydro-2H-pyran-4-carbonitrile]
[1]; Table 3a
  IC50: 1.1 nM
[2]; Table 3a
  IC50: 18.9 nM
[4]; [7]
  IC50: 265 nM
[5]; [8]
  Dog LM QH: 78.4%

## Cc1cnc(Nc2cc(Cl)c3c(c2)C(C(C)C)=CB(O)O3)nc1N[C@H]1COCC[C@@H]1C#N (single isomer, unassigned) [Example 040b, (trans)-3-((2-((8-chloro-2-hydroxy-4-isopropyl-2H-benzo[e][1,2]oxaborinin-6-yl)amino)-5-methylpyrimidin-4-yl)amino)tetrahydro-2H-pyran-4-carbonitrile]
[1]; Table 3a
  IC50: 1.1 nM
[2]; Table 3a
  IC50: 16.7 nM
[4]; [7]
  IC50: 1410 nM
[5]; [8]
  Dog LM QH: 47.4%

## CCC(CC)Nc1nc(Nc2ccc3c(c2)COB3O)ncc1C [Example C001]
[1]; Table 3b, comparator compounds
  IC50: 1.6 nM
[2]; Table 3b, comparator compounds
  IC50: 60.2 nM
[3]; Table 3b, comparator compounds
  IC50: 92.2 nM
  Inhibition PDE4B @ 1 μM: 90%
[4]; [9]
  IC50: 115 nM
[6]
  IC50: 1720 nM
[5]; Table 3b, comparator compounds
  Dog LM QH: 73.8%

## CCC(CC)Nc1nc(Nc2cc(Cl)c3c(c2)COB3O)ncc1C [Example C002]
[1]; Table 3b, comparator compounds
  IC50: 1.1 nM
[2]; Table 3b, comparator compounds
  IC50: 95.7 nM
[4]; [9]
  IC50: 155 nM
[6]
  IC50: 10000 nM
[5]; Table 3b, comparator compounds
  Dog LM QH: <19.9%

## CCC(CC)Nc1nc(Nc2cc(F)c3c(c2)COB3O)ncc1C [Example C003]
[1]; Table 3b, comparator compounds
  IC50: 0.7 nM
[2]; Table 3b, comparator compounds
  IC50: 43.7 nM
[3]; Table 3b, comparator compounds
  IC50: 212 nM
[4]; [9]
  IC50: 125 nM
[6]
  IC50: 1160 nM
[5]; Table 3b, comparator compounds
  Dog LM QH: 41.0%

## CCC(CC)Nc1nc(Nc2cc(C)c3c(c2)COB3O)ncc1C [Example C004]
[1]; Table 3b, comparator compounds
  IC50: 1.1 nM
[2]; Table 3b, comparator compounds
  IC50: 41 nM
[3]; Table 3b, comparator compounds
  Inhibition PDE4B @ 1 μM: 22%
[4]; [9]
  IC50: 118 nM
[6]
  IC50: > 10000 nM
[5]; Table 3b, comparator compounds
  Dog LM QH: 34.5%

## CCC(CC)Nc1nc(Nc2ccc3c(c2)COB3O)ncc1Cl [Example C005]
[1]; Table 3b, comparator compounds
  IC50: 1.1 nM
[2]; Table 3b, comparator compounds
  IC50: 33.3 nM
[3]; Table 3b, comparator compounds
  IC50: 379 nM
[4]; [9]
  IC50: 6120 nM
[6]
  IC50: 2250 nM

## Cc1cnc(Nc2ccc3c(c2)COB3O)nc1NC1CCCC1 [Example C006]
[1]; Table 3b, comparator compounds
  IC50: 6.5 nM
[2]; Table 3b, comparator compounds
  IC50: 154 nM
[3]; Table 3b, comparator compounds
  IC50: 114 nM
  Inhibition PDE4B @ 1 μM: 86%
[4]; [9]
  IC50: 293 nM
[6]
  IC50: 270 nM
[5]; Table 3b, comparator compounds
  Dog LM QH: >86.6%

## Cc1cnc(Nc2cc(Cl)c3c(c2)COB3O)nc1NC1CCCC1 [Example C007]
[1]; Table 3b, comparator compounds
  IC50: 0.7 nM
[2]; Table 3b, comparator compounds
  IC50: 31.8 nM
[3]; Table 3b, comparator compounds
  IC50: 113 nM
[4]; [9]
  IC50: 300 nM
[6]
  IC50: 3740 nM
[5]; Table 3b, comparator compounds
  Dog LM QH: 52.1%

## OB1OCc2cc(Nc3nccc(NC4CCCCC4)n3)ccc21 [Example C010]
[1]; Table 3b, comparator compounds
  IC50: 48 nM
[2]; Table 3b, comparator compounds
  IC50: 364 nM
[3]; Table 3b, comparator compounds
  IC50: 956 nM
  Inhibition PDE4B @ 1 μM: 53%

## Cc1cnc(Nc2cc(Cl)c3c(c2)COB3O)nc1NC1CCCCC1 [Example C012]
[1]; Table 3b, comparator compounds
  IC50: 0.1 nM
[2]; Table 3b, comparator compounds
  IC50: 6.5 nM
[4]; [9]
  IC50: 224 nM
[6]
  IC50: 1780 nM
[5]; Table 3b, comparator compounds
  Dog LM QH: <19.9%

## OB1OCc2cc(Nc3ncc(Cl)c(NC4CCCC4)n3)cc(F)c21 [Example C015]
[1]; Table 3b, comparator compounds
  IC50: 0.8 nM
[2]; Table 3b, comparator compounds
  IC50: 26.5 nM
[3]; Table 3b, comparator compounds
  IC50: 85.7 nM
[5]; Table 3b, comparator compounds
  Dog LM QH: 67.2%

## OB1OCc2cc(Nc3ncc(F)c(NC4CCCCC4)n3)ccc21 [Example C017]
[1]; Table 3b, comparator compounds
  IC50: 11.2 nM
[2]; Table 3b, comparator compounds
  IC50: 1850 nM
[4]; [9]
  IC50: 1640 nM
[6]
  IC50: 10000 nM
[5]; Table 3b, comparator compounds
  Dog LM QH: 53.5%

## OB1OCc2cc(Nc3ncc(Cl)c(NC4CCCCC4)n3)ccc21 [Example C018]
[2]; Table 3b, comparator compounds
  IC50: 118 nM
[3]; Table 3b, comparator compounds
  IC50: 108 nM
[5]; Table 3b, comparator compounds
  Dog LM QH: 56.0%

## OB1OCc2cc(Nc3ncc(C(F)(F)F)c(NC4CCCC4)n3)ccc21 [Example C019]
[1]; Table 3b, comparator compounds
  IC50: 29.5 nM
[2]; Table 3b, comparator compounds
  IC50: 171 nM
[3]; Table 3b, comparator compounds
  IC50: 275 nM
  Inhibition PDE4B @ 1 μM: 90%
[5]; Table 3b, comparator compounds
  Dog LM QH: 73.8%

## OB1OCc2cc(Nc3ncc(C(F)(F)F)c(NC4CCCCC4)n3)ccc21 [Example C020]
[1]; Table 3b, comparator compounds
  IC50: 44.1 nM
[2]; Table 3b, comparator compounds
  IC50: 397 nM
[3]; Table 3b, comparator compounds
  IC50: 37.6 nM
[5]; Table 3b, comparator compounds
  Dog LM QH: <19.9%
